Results reported in ChEMBL document CHEMBL5038669, “Development of the First Covalent Monopolar Spindle Kinase 1 (MPS1/TTK) Inhibitor” (J Med Chem, 2022).
Activity calls are given as the source filed them. The rule behind the calls is not given here.

Assays:
Hep 3B2 [1] = test: Induction of cell senescence in human Hep3B cells at 200 uM measured up to 5 days by SA-beta-gal-staining based assay; assay type: functional; settings: time day <=5
[2] = biological target: T1, Dual specificity protein kinase TTK (Homo sapiens, UniProt P33981); test: Covalent inhibition of human full length N-terminal GST-fused MPS1 (1 to 857 residues) assessed as inhibition constant by TR-FRET assay
T1 sequence (P33981 whole entry): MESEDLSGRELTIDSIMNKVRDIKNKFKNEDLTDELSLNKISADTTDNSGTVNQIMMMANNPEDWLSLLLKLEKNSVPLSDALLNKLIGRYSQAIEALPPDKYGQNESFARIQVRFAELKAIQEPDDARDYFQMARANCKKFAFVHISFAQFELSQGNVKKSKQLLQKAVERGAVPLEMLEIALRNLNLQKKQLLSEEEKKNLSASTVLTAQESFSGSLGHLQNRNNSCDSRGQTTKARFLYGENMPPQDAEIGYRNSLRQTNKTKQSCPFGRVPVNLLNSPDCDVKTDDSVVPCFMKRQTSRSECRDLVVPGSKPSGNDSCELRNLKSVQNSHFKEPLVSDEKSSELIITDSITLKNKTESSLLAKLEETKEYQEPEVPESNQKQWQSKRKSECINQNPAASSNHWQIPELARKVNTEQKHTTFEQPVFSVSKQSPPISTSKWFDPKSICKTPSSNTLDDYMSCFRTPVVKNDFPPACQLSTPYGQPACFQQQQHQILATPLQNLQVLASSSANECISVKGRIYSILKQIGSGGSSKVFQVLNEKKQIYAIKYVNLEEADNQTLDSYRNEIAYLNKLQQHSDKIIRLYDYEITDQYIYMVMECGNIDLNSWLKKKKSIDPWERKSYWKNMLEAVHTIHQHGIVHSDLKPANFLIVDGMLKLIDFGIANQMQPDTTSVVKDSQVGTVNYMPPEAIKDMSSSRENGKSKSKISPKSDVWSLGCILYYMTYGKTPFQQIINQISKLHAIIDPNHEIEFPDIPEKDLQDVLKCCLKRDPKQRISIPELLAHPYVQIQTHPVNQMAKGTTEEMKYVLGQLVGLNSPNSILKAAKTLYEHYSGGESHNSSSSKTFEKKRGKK

SNU-387 [3] = test: Induction of cell senescence in human SNU-387 cells at 200 uM measured up to 5 days by SA-beta-gal-staining based assay; assay type: functional; settings: time day <=5
Hep 3B2 [4] = test: Induction of apoptosis in human Hep3B cells assessed as increase in cleaved PARP level at 200 nM measured upto 5 days by Western blot analysis; assay type: functional, cell-based; settings: time day <=5
Hep 3B2 [5] = test: Induction of apoptosis in human Hep3B cells assessed as increase in phospho-gammaH2A.X expression level at 200 nM measured upto 5 days by Western blot analysis; assay type: functional, cell-based; settings: time day <=5
Hep 3B2 [6] = test: Induction of apoptosis in human Hep3B cells assessed as increase in cleaved caspase-3 level at 200 nM measured upto 5 days by Western blot analysis; assay type: functional, cell-based; settings: time day <=5
Hep 3B2 [7] = test: Synergistic antiproliferative activity against human Hep3B cells at 200 nM measured after 5 days in presence of navitoclax by crystal violet staining based assay; assay type: functional, cell-based; settings: time 5.0 day
HLF = test: Antiproliferative activity against human HLF cells incubated for 5 days by XTT assay; assay type: functional, cell-based; settings: time 5.0 day
HCC 2998 = test: Antiproliferative activity against human HCC 2998 cells; assay type: functional, cell-based
Huh-7 = test: Induction of apoptosis in human Huh-7 cells assessed as increase in phospho-gammaH2A.X expression level at 200 nM measured upto 5 days by Western blot analysis; assay type: functional, cell-based; settings: time day <=5
Hep 3B2 [8] = test: Induction of apoptosis in human Hep3B cells assessed as down regulation of cyclin B1 expression at 200 nM measured upto 5 days by Western blot analysis; assay type: functional, cell-based; settings: time day <=5
[9] = biological target: T2, Dual specificity protein kinase TTK (Homo sapiens) (UniProt P33981); test: Covalent inhibition of human full length N-terminal GST-fused MPS1 (1 to 857 residues) assessed as Kinact/Ki ratio by TR-FRET assay
T2 sequence (whole entry): T1 sequence (P33981 whole entry)

PLC-PRF-5 = test: Antiproliferative activity against human Alex cells incubated for 5 days by XTT assay; assay type: functional, cell-based; settings: time 5.0 day
MDA-MB-231 = test: Cytotoxicity against human MDA-MB-231cells assessed as reduction in cell viability incubated for 5 days by XTT assay; assay type: functional, cell-based; settings: time 5.0 day
HCT-15 [10] = test: Cytotoxicity against human HCT-15 cells assessed as reduction in cell viability incubated for 5 days by XTT assay; assay type: functional, cell-based; settings: time 5.0 day
SNU-387 [11] = test: Induction of apoptosis in human SNU-387 cells assessed as down regulation of cyclin B1 expression at 200 nM measured upto 5 days by Western blot analysis; assay type: functional, cell-based; settings: time day <=5
SNU-387 [12] = test: Antiproliferative activity against human SNU-387 cells incubated for 5 days by XTT assay; assay type: functional, cell-based; settings: time 5.0 day
[13] = biological target: MAP kinase-activated protein kinase 2 (Homo sapiens, UniProt P49137); test: Inhibition of human recombinant MAPKAPK2 expressed in Sf9 insect cells using [KKLNRTLSVA] as substrate in presence of [33P]-ATP by radiometric hotspot kinetic assay
Sequence of MAP kinase-activated protein kinase 2 (P49137 whole entry): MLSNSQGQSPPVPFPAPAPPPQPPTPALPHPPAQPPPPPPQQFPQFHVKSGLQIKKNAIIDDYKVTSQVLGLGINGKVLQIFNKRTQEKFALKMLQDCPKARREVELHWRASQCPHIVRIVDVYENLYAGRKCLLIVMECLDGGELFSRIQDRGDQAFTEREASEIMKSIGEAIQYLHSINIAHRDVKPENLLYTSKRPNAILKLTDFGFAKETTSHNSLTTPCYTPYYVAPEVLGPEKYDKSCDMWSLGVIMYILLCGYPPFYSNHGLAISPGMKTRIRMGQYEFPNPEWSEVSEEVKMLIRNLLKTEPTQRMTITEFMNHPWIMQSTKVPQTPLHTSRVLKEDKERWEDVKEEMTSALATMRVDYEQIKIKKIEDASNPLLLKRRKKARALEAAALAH

HCT-116 [14] = test: Induction of apoptosis in human HCT-116 cells assessed as increase in cleaved PARP level measured for 3 days by Western blot analysis; assay type: functional, cell-based; settings: time 3.0 day
HCT-116 [15] = test: Antiproliferative activity against human HCT-116 cells; assay type: functional, cell-based
HCT-116 [16] = test: Induction of apoptosis in human HCT-116 cells assessed as upregulation of phospho-gammaH2A.X expression measured after 3 days by Western blot analysis; assay type: functional, cell-based; settings: time 3.0 day
[17] = biological target: Fibroblast growth factor receptor 4 (Homo sapiens, UniProt P22455); test: Inhibition of human recombinant FGFR4 expressed in Sf9 insect cells using poly[Glu:Tyr] 4:1 as substrate in presence of [33P]-ATP by radiometric hotspot kinetic assay
Sequence of Fibroblast growth factor receptor 4 (P22455 whole entry): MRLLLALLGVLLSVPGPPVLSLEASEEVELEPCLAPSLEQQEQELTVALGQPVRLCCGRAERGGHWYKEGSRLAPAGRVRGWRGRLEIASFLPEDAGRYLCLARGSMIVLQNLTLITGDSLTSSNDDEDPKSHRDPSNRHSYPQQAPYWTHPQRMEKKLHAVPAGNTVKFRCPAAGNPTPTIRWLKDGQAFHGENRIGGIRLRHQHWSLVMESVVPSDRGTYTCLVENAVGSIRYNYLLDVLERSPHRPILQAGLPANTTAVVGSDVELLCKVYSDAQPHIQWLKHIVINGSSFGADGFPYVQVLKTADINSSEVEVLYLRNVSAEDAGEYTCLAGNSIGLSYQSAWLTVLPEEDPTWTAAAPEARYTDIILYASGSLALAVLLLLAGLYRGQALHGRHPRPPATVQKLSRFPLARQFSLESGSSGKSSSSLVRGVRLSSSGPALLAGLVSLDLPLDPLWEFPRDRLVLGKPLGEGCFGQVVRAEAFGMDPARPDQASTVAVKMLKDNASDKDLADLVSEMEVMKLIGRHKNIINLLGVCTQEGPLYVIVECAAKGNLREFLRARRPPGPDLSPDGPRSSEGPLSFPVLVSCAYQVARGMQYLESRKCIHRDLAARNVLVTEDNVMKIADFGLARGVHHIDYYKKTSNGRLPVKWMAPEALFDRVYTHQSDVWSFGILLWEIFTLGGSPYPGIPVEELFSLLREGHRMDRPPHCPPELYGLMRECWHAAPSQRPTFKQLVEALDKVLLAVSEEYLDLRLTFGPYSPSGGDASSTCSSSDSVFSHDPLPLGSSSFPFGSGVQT

SK-HEP1 = test: Antiproliferative activity against human SK-HEP1 cells incubated for 5 days by XTT assay; assay type: functional, cell-based; settings: time 5.0 day
HCT-116 [18] = test: Induction of apoptosis in human HCT-116 cells assessed as upregulation of p21 expression measured after 3 days by Western blot analysis; assay type: functional, cell-based; settings: time 3.0 day
HLE = test: Antiproliferative activity against human HLE cells incubated for 5 days by XTT assay; assay type: functional, cell-based; settings: time 5.0 day
[19] = biological target: T1, Dual specificity protein kinase TTK; test: Inhibition of recombinant human full length N-terminal GST-fused MPS1 (1 to 857 residues) using histone H3 as substrate measured after 4 hrs in presence of DTT by TR-FRET assay
HCT-15 [20] = test: Antiproliferative activity against human HCT-15 cells; assay type: functional, cell-based
SNU-387 [21] = test: Induction of apoptosis in human SNU-387 cells assessed as increase in phospho-gammaH2A.X expression level at 200 nM measured upto 5 days by Western blot analysis; assay type: functional, cell-based; settings: time day <=5
KM12 = test: Antiproliferative activity against human KM12 cells; assay type: functional, cell-based
HCT-116 [22] = test: Induction of apoptosis in human HCT-116 cells assessed as upregulation of p53 expression measured after 3 days by Western blot analysis; assay type: functional, cell-based; settings: time 3.0 day
HuH-6 = test: Antiproliferative activity against human HuH-6 cells incubated for 5 days by XTT assay; assay type: functional, cell-based; settings: time 5.0 day
[23] = biological target: T2, Dual specificity protein kinase TTK (Homo sapiens); test: Displacement of tracer K9 from NanoLuc-fused MPS1 (unknown origin) expressed in HEK293T cells at 10 fold IC50 preincubated for 2 hrs followed by compound washout by NanoBRET assay; assay type: cell-based

For `C=CC(=O)Nc1cc(N2CCN(C)CC2)ccc1Nc1ncc2c(n1)-n1ccc(C(=O)Nc3c(CC)cccc3CC)c1CC2`, the Activity (Hep 3B2 [1]) was “Active”, the Ki [2] was 14.2 nM and the Activity (SNU-387 [3]) was “Active”. For the same compound, the Activity (Hep 3B2 [4]) was “Active”, the Activity (Hep 3B2 [5]) was “Active” and the Activity (Hep 3B2 [6]) was “Active”. The Activity (Hep 3B2 [7]) was “Active”, the Activity (HLF) was “Active” and the Activity (HCC 2998) was “Active”. For the same compound, the Activity (Huh-7) was “Active”, the Activity (Hep 3B2 [8]) was “Active” and the Ratio [9] was 1.71 10^4/M/s. The Activity (PLC-PRF-5) was “Active”, the Activity (MDA-MB-231) was “Active” and the Activity (HCT-15 [10]) was “Active”. The Activity (SNU-387 [11]) was “Active”, the Activity (SNU-387 [12]) was “Active” and the IC50 [13] was over 5000 nM. For the same compound, the Activity (HCT-116 [14]) was “Active”, the Activity (HCT-116 [15]) was “Active” and the Activity (HCT-116 [16]) was “Active”. For the same compound, the IC50 [17] was 2750 nM, the Activity (SK-HEP1) was “Active” and the Activity (HCT-116 [18]) was “Active”. For the same compound, the Activity (HLE) was “Active”, the IC50 [19] was 13.8 nM and the Activity (HCT-15 [20]) was “Active”. For the same compound, the Activity (SNU-387 [21]) was “Active”, the Activity (KM12) was “Active” and the Activity (HCT-116 [22]) was “Active”. The Activity (HuH-6) was “Active” and the Activity [23] was 50%.
